In patent publication US4650785A, “Pharmaceutical composition having an excellent absorption property” (Ajinomoto Company Incoporated, priority 1982, dated 1987):

Columns and labels:
[1] = Usefulness as medicine absorption promoter (statement, test not described)
[2] = test system: Female CD-1(ICR) Mice; assay: Toxicity studies of phenylalanine derivatives (LD50); type: in vivo; conditions: female CD-1(ICR) mice; suspended in 0.5% CMC
Text: Toxicity Studies of Phenylalanine Derivatives with Oral IN Potentiating Activity in Female CD-1(ICR) Mice are as follows:
Phenylalanine derivatives were suspended in 0.5% CMC.

[3] = test system: Female ICR-CD-1 mice; assay: Oral administration of absorption promoter mixed with insulin to mice: decrease in blood glucose and elevation of blood insulin versus control; type: in vivo; design: Degree of Elevation of Blood Insulin: unit not given here; conditions: oral, mice, vs control group
Procedure: The absorption promoter samples listed in Table 2 were dissolved or suspended in 0.5% CMC-0.05M tris-HCl buffers (pH: 7.8) and the solutions or suspensions were mixed with aqueous insulin solution. Female ICR-CD-1 mice 5 to 7 weeks old were orally administered predetermined amounts of the mixtures. A predetermined duration later, the percent decrease in blood glucose and the degree of elevation of blood insulin as compared with the control group were measured. The symbol "Z" in the structural formulas in the table represents a benzyloxycarbonyl group. The upper figures in the columns "effectiveness" represent the percent decrease in blood glucose and the lower parenthesized figures indicate the degree of elevation in blood insulin.

[4] = sample 3.0 mg/10 g with insulin 2.5 U/10 g body weight, 30 minutes
[5] = sample 3.0 mg/10 g with insulin 2.5 U/10 g body weight, 60 minutes
[6] = sample 6.0 mg/10 g with insulin 2.5 U/10 g body weight, 30 minutes
[7] = sample 6.0 mg/10 g with insulin 2.5 U/10 g body weight, 60 minutes

In the case of `CC(=O)N[C@@H](Cc1ccccc1)C(=O)O` [N-acetylphenylalanine], the “usefulness as the absorption promoter” value [1] is reported as “not useful as the absorption promoter”.
For `N[C@@H](Cc1ccccc1)C(=O)O` [Phenylalanine], the “usefulness as the absorption promoter” value [1] was “not useful as the absorption promoter”.
For `O=C(N[C@@H](Cc1ccccc1)C(=O)O)OCc1ccccc1` [Sample S-15, N-benzyloxycarbonyl-L-phenylalanine], the “LD50 (mg/kg)” value [2] was > 2,750 mg/kg, the “Decrease in Blood Glucose (%)” value [3, 4] was 37.5% and the “Degree of Elevation of Blood Insulin” value [3, 4] was 3.43. For the same compound, the “Decrease in Blood Glucose (%)” value [3, 5] was 60.7% and the “Degree of Elevation of Blood Insulin” value [3, 5] was 2.36.
With `COc1ccc(COC(=O)N[C@@H](Cc2ccccc2)C(=O)O)cc1` [Sample S-17, N-(4-methoxybenzyloxycarbonyl)-L-phenylalanine] the “LD50” value [2] was 750 mg/kg, the “Decrease in Blood Glucose (%)” value [3, 4] was 64.8% and the “Degree of Elevation of Blood Insulin” value [3, 4] was 14.4. For the same compound, the “Decrease in Blood Glucose (%)” value [3, 5] was 50.6% and the “Degree of Elevation of Blood Insulin” value [3, 5] was 21.2.
In the case of `O=C(N[C@H](Cc1ccccc1)C(=O)O)OCc1ccccc1` [Sample S-18, N-benzyloxycarbonyl-D-phenylalanine], the “LD50 (mg/kg)” value [2] is reported as > 4,000 mg/kg, the “Decrease in Blood Glucose (%)” value [3, 6] is reported as 52.3% and the “Degree of Elevation of Blood Insulin” value [3, 6] is reported as 6.79. The “Decrease in Blood Glucose (%)” value [3, 7] was 67.2% and the “Degree of Elevation of Blood Insulin” value [3, 7] was 10.6.
